Patent US12185723B2, “Herbicidally active 3-phenylisoxazoline-5-carboxamides of s-containing cyclopentenylcarboxylic esters” (Bayer Aktiengesellschaft, priority 2019, dated 2025)

Tests used:
Assay type in all cases: in vivo
[1] = tested on: Avena fatua; experiment: Post-emergence herbicidal action against AVEFA; settings: visual rating about 3 weeks after treatment
Method: (§1) Post-Emergence Herbicidal Action Against Harmful Plants and Crop Plant Compatibility Seeds of monocotyledonous and dicotyledonous weeds and crop plants are placed in sandy loam in plastic or wood-fibre pots, covered with soil and cultivated in a greenhouse under controlled growth conditions. 2 to 3 weeks after sowing, the test plants are treated at the one-leaf stage. The compounds of the invention, formulated in the form of wettable powders (WP) or as emulsion concentrates (EC), are then sprayed onto the green parts of the plants as aqueous suspension or emulsion with addition of 0.5% additive at a water application rate of 600 l/ha (converted). After the test plants have been kept in the greenhouse under optimum growth conditions for about 3 weeks, the activity of the preparations is rated visually in comparison to untreated controls. For example, 100% activity=the plants have died, 0% activity=like control plants. [table]

[2] = tested on: Pharbitis purpurea; experiment: Post-emergence herbicidal action against PHBPU
Method: as §1

[3] = tested on: Hordeum murinum; experiment: Post-emergence herbicidal action against HORMU
Method: as §1

[4] = tested on: DIGSA; experiment: Post-emergence herbicidal action against DIGSA; settings: visual rating about 3 weeks after treatment
Method: as §1, with “plants.” for “plants. [table]”

[5] = tested on: Amaranthus retroflexus; experiment: Post-emergence herbicidal action against AMARE
Method: as §1

[6] = tested on: Alopecurus myosuroides; experiment: Post-emergence herbicidal action against ALOMY; settings: visual rating about 3 weeks after treatment
Method: as §1

[7] = tested on: Setaria viridis; experiment: Post-emergence herbicidal action against SETVI; settings: visual rating about 3 weeks after treatment
Method: as §1

[8] = tested on: Lolium rigidum; experiment: Post-emergence herbicidal action against LOLRI; settings: visual rating about 3 weeks after treatment
Method: as §1

[9] = tested on: Stellaria media; experiment: Post-emergence herbicidal action against STEME
Method: as §1

[10] = tested on: Veronica persica; experiment: Post-emergence herbicidal action against VERPE
Method: as §1

[11] = tested on: Viola tricolor; experiment: Post-emergence herbicidal action against VIOTR
Method: as §1

[12] = tested on: Polygonum convolvulus; experiment: Post-emergence herbicidal action against POLCO
Method: as §1

[13] = tested on: Echinochloa crus-galli; experiment: Post-emergence herbicidal action against ECHCG; settings: visual rating about 3 weeks after treatment
Method: as §1

[14] = tested on: Matricaria inodora; experiment: Post-emergence herbicidal action against MATIN; settings: 20 g a.i./ha
Method: as §1

[15] = tested on: Abutilon theophrasti; experiment: Post-emergence herbicidal action against ABUTH; settings: visual rating about 3 weeks after treatment
Method: as §1

[16] = 80 g a.i./ha, visual rating about 3 weeks after treatment

Compound | Herbicidal action against [%] AVEFA ([1]; 20 g a.i./ha) | Herbicidal action against [%] DIGSA ([4]; 20 g a.i./ha) | Herbicidal action against [%] DIGSA ([4]; 80 g a.i./ha) | Herbicidal action against [%] AMARE ([5]; 20 g a.i./ha) | Herbicidal action against [%] ALOMY ([6]; 20 g a.i./ha) | Herbicidal action against [%] ALOMY ([6]; 80 g a.i./ha) | Herbicidal action against [%] SETVI ([7]; 20 g a.i./ha) | Herbicidal action against [%] LOLRI ([8]; 20 g a.i./ha) | Herbicidal action against [%] LOLRI ([8]; 80 g a.i./ha) | Herbicidal action against [%] VERPE ([10]; 20 g a.i./ha) | Herbicidal action against [%] VERPE ([10]; 80 g a.i./ha) | Herbicidal action against [%] POLCO ([12]; 20 g a.i./ha) | Herbicidal action against [%] PHBPU ([2]; 20 g a.i./ha) | Herbicidal action against [%] MATIN [14] | Herbicidal action against [%] ECHCG ([13]; 20 g a.i./ha) | Herbicidal action against [%] ABUTH ([15]; 20 g a.i./ha) | further results
CSCCOC(=O)C1C=CC(NC(=O)C2(C(F)(F)F)CC(c3cc(F)cc(C#N)c3)=NO2)C1 (mixture of isomers) [Example I-37] | 90% | 80% | 90% | 80% | 90% | 90% | 80% | 90% | 90% | 80% | 90% | 80% | – | – | – | – | Herbicidal action against [%] AVEFA ([1]; 80 g a.i./ha): 90%; Herbicidal action against [%] PHBPU ([2]; 80 g a.i./ha): 80%; Herbicidal action against [%] HORMU ([3]; 20 g a.i./ha): 80%; Herbicidal action against [%] HORMU ([3]; 80 g a.i./ha): 80%; Herbicidal action against [%] AMARE [5, 16]: 80%; Herbicidal action against [%] SETVI ([7]; 80 g a.i./ha): 80%; Herbicidal action against [%] STEME ([9]; 20 g a.i./ha): 80%; Herbicidal action against [%] STEME ([9]; 80 g a.i./ha): 80%; Herbicidal action against [%] VIOTR ([11]; 20 g a.i./ha): 80%; Herbicidal action against [%] POLCO ([12]; 80 g a.i./ha): 80%; Herbicidal action against [%] ECHCG ([13]; 80 g a.i./ha): 80%
C=CC1(C(=O)NC2C=CC(C(=O)OCCSC)C2)CC(c2ccccc2)=NO1 (mixture of isomers) [Example I-48] | – | 80% | 90% | – | – | 100% | 80% | 80% | 90% | 80% | 90% | – | – | – | – | – | Herbicidal action against [%] AVEFA ([1]; 80 g a.i./ha): 90%; Herbicidal action against [%] PHBPU ([2]; 80 g a.i./ha): 80%; Herbicidal action against [%] HORMU ([3]; 80 g a.i./ha): 80%; Herbicidal action against [%] SETVI ([7]; 80 g a.i./ha): 80%; Herbicidal action against [%] STEME ([9]; 20 g a.i./ha): 90%; Herbicidal action against [%] STEME ([9]; 80 g a.i./ha): 90%; Herbicidal action against [%] VIOTR ([11]; 20 g a.i./ha): 90%; Herbicidal action against [%] ECHCG ([13]; 80 g a.i./ha): 80%
CC1(C(=O)NC2C=CC(C(=O)OCCSCc3ccccc3)C2)CC(c2cc(F)cc(F)c2)=NO1 (stereo not shown) [Example I-07] | 90% | 90% | – | 90% | 90% | – | 90% | 90% | – | 90% | – | 90% | 80% | 80% | 90% | 80% | –
CC(C)CSCCOC(=O)C1C=CC(NC(=O)C2(C)CC(c3cc(F)cc(F)c3)=NO2)C1 (stereo not shown) [Example I-08] | 90% | 90% | – | 90% | 100% | – | 90% | 90% | – | 80% | – | 90% | 90% | 80% | 90% | 90% | –
CC(C)SCCOC(=O)C1C=CC(NC(=O)C2(C)CC(c3cc(F)cc(F)c3)=NO2)C1 (stereo not shown) [Example I-10] | 90% | 90% | – | 90% | 100% | – | 90% | 100% | – | 90% | – | 90% | 80% | 80% | 90% | 90% | –
C=CCSCCOC(=O)C1C=CC(NC(=O)C2(C)CC(c3cc(F)cc(F)c3)=NO2)C1 (stereo not shown) [Example I-11] | 90% | 90% | – | 90% | 100% | – | 90% | 100% | – | 90% | – | 90% | 80% | 80% | 90% | 90% | –
COC1(C(=O)NC2C=CC(C(=O)OCCSC)C2)CC(c2cc(F)cc(F)c2)=NO1 (stereo not shown) [Example I-19] | 90% | 90% | – | 80% | 80% | – | 90% | 90% | – | 90% | – | 80% | 80% | 80% | 90% | 80% | –
COC1(C(=O)NC2C=CC(C(=O)OCCSC(=O)C(C)C)C2)CC(c2cc(F)cc(F)c2)=NO1 (stereo not shown) [Example I-23] | 90% | 90% | – | 80% | 90% | – | 80% | 90% | – | 90% | – | 80% | 80% | 80% | 90% | 80% | –
COC1(C(=O)NC2C=CC(C(=O)OCCSC(=O)N(C)C)C2)CC(c2cc(F)cc(F)c2)=NO1 (stereo not shown) [Example I-24] | 90% | 80% | – | 90% | 80% | – | 90% | 90% | – | 100% | – | 80% | 80% | 80% | 90% | 80% | –
CSCCOC(=O)C1C=CC(NC(=O)C2(C3CC3)CC(c3cc(F)cc(F)c3)=NO2)C1 (stereo not shown) [Example I-30] | 90% | 80% | 90% | – | – | 90% | – | 90% | 90% | 80% | 90% | – | – | – | – | – | Herbicidal action against [%] AVEFA ([1]; 80 g a.i./ha): 90%; Herbicidal action against [%] HORMU ([3]; 20 g a.i./ha): 90%; Herbicidal action against [%] HORMU ([3]; 80 g a.i./ha): 90%; Herbicidal action against [%] AMARE [5, 16]: 80%; Herbicidal action against [%] SETVI ([7]; 80 g a.i./ha): 80%; Herbicidal action against [%] VIOTR ([11]; 80 g a.i./ha): 80%; Herbicidal action against [%] POLCO ([12]; 80 g a.i./ha): 80%
CSCCOC(=O)C1C=CC(NC(=O)C2(C)CC(c3cccc(C#N)c3)=NO2)C1 (stereo not shown) [Example I-40] | – | – | 80% | – | – | 80% | – | 80% | 80% | 80% | 80% | – | – | – | 80% | 80% | Herbicidal action against [%] STEME ([9]; 20 g a.i./ha): 80%; Herbicidal action against [%] STEME ([9]; 80 g a.i./ha): 80%; Herbicidal action against [%] VIOTR ([11]; 20 g a.i./ha): 80%; Herbicidal action against [%] ECHCG ([13]; 80 g a.i./ha): 80%; Herbicidal action against [%] ABUTH ([15]; 80 g a.i./ha): 80%
COC(=O)CSCCOC(=O)C1C=CC(NC(=O)C2(C)CC(c3cc(F)cc(F)c3)=NO2)C1 (stereo not shown) [Example I-64] | 90% | 90% | – | 90% | 90% | – | 80% | 90% | – | 80% | – | 80% | 80% | 90% | 90% | 80% | –
